Reference: ChEMBL document CHEMBL1140572, “Next-generation spirobenzazepines: identification of RWJ-676070 as a balanced vasopressin V1a/V2 receptor antagonist for human clinical studies” (Bioorg Med Chem Lett, 2007)

Legend:
Vasopressin V2 receptor [1] = molecular target: T1, Vasopressin V2 receptor (Homo sapiens, UniProt P30518); assay: Displacement of [3H]Arg-vasopressin from human recombinant vasopressin V2 receptor expressed in HEK293 cells at 100 nM; type: cell-based
Vasopressin V1a receptor [2] = molecular target: T2, Vasopressin V1a receptor (Homo sapiens, UniProt P37288); assay: Antagonist activity at human vasopressin V1a receptor expressed in HEK293 cells assessed as inhibition of Arg-vasopressin-induced intracellular calcium level; type: functional, cell-based
Target sequence in this assay (P37288 whole entry): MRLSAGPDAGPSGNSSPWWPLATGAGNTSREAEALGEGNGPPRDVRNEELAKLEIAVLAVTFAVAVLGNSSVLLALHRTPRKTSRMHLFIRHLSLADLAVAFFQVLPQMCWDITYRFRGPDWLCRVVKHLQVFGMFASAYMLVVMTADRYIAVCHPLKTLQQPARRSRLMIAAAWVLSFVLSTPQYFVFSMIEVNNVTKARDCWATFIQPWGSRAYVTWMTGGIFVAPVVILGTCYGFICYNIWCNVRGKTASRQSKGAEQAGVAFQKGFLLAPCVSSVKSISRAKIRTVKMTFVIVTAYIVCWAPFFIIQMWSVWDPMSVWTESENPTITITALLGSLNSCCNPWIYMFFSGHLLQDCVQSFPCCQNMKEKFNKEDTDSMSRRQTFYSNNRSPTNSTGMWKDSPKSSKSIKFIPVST

Vasopressin V2 receptor [3] = molecular target: T1, Vasopressin V2 receptor; assay: Antagonist activity at human vasopressin V2 receptor expressed in HEK293 cells assessed as inhibition of Arg-vasopressin-induced cAMP levels; type: functional, cell-based
Vasopressin V1a receptor [4] = molecular target: T2, Vasopressin V1a receptor; assay: Displacement of [3H]Arg-vasopressin from human recombinant vasopressin V1a receptor expressed in HEK293 cells at 100 nM; type: cell-based
Target sequence in this assay (P37288 whole entry, looked up): as the sequence (P37288 whole entry) above

Rattus norvegicus [5] = assay: Aquaretic effect in hydrated conscious rat assessed as reduction of urine osmolality at 30 mg/kg, po relative to control; type: functional; design: scale not given: the % may be the effect or the level left
Canis familiaris [6] = assay: Aquaretic effect in Beagle dog assessed as increase in urine volume at 30 mg/kg, po relative to control; type: functional, Canis lupus familiaris
Canis familiaris [7] = assay: Aquaretic effect in Beagle dog assessed as reduction of urine osmolality at 30 mg/kg, po relative to control; type: functional, Canis lupus familiaris; design: scale not given: the % may be the effect or the level left
Rattus norvegicus [8] = assay: Reversal of Arg-vasopressin-induced hypertension in iv dosed Long-Evans rat assessed as reduction of blood pressure; type: functional
Vasopressin V2 receptor [9] = molecular target: T1, Vasopressin V2 receptor; assay: Displacement of [3H]Arg-vasopressin from human recombinant vasopressin V2 receptor expressed in HEK293 cells; type: cell-based
[10] = Aqueous solubility at pH 7.4; type: physicochemical
Vasopressin V1a receptor [11] = molecular target: Vasopressin V1a receptor (Rattus norvegicus, UniProt P30560); assay: Antagonist activity at rat vasopressin V1a receptor expressed in HEK293 cells assessed as inhibition of Arg-vasopressin-induced intracellular calcium level; type: functional, cell-based
Sequence of Vasopressin V1a receptor (Rattus norvegicus, UniProt P30560) (P30560 whole entry): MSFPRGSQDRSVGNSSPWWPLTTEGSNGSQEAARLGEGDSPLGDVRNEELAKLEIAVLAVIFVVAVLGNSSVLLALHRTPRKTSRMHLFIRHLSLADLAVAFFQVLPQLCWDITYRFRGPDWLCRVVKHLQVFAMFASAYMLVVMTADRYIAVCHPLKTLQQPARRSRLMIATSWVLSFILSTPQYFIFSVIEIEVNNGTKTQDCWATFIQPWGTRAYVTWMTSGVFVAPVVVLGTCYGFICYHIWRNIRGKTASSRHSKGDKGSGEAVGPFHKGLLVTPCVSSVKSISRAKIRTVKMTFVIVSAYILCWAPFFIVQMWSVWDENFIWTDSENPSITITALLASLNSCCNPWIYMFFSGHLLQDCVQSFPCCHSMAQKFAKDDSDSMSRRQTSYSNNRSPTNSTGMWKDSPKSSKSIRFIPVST

Vasopressin V2 receptor [12] = molecular target: Vasopressin V2 receptor (Rattus norvegicus, UniProt Q00788); assay: Antagonist activity at rat vasopressin V2 receptor expressed in HEK293 cells assessed as inhibition of Arg-vasopressin-induced cAMP levels; type: functional, cell-based
Sequence of Vasopressin V2 receptor (Rattus norvegicus, UniProt Q00788) (Q00788 whole entry): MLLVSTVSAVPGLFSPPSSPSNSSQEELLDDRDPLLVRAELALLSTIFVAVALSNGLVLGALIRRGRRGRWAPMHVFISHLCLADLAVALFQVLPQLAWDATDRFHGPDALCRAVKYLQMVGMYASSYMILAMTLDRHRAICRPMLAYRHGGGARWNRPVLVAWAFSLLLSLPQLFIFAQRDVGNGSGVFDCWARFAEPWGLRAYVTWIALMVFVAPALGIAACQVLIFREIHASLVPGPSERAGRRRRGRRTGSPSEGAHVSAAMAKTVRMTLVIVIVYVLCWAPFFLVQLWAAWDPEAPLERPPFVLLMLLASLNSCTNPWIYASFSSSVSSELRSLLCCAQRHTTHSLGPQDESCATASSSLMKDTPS

[13] = Oral bioavailability in rat; type: ADME, organism-based; details: in vivo
[14] = Oral bioavailability in dog; type: ADME, organism-based, Canis lupus familiaris; details: in vivo
[15] = Oral bioavailability in cynomolgus monkey; type: ADME, organism-based, Macaca fascicularis; details: in vivo
[16] = Half life in rat plasma; type: ADME, organism-based
[17] = Half life in dog plasma; type: ADME, organism-based, Canis lupus familiaris
[18] = Half life in cynomolgus monkey plasma; type: ADME, organism-based, Macaca fascicularis
Rattus norvegicus [19] = assay: Aquaretic effect in hydrated conscious rat assessed as increase in urine volume at 1 mg/kg, po relative to control; type: functional
Rattus norvegicus [20] = assay: Aquaretic effect in hydrated conscious rat assessed as reduction of urine osmolality at 1 mg/kg, po relative to control; type: functional; design: scale not given: the % may be the effect or the level left
Rattus norvegicus [21] = assay: Aquaretic effect in hydrated conscious rat assessed as increase in urine volume at 3 mg/kg, po relative to control; type: functional
Rattus norvegicus [22] = assay: Aquaretic effect in hydrated conscious rat assessed as reduction of urine osmolality at 3 mg/kg, po relative to control; type: functional; design: scale not given: the % may be the effect or the level left
Rattus norvegicus [23] = assay: Aquaretic effect in hydrated conscious rat assessed as increase in urine volume at 10 mg/kg, po relative to control; type: functional
Rattus norvegicus [24] = assay: Aquaretic effect in hydrated conscious rat assessed as reduction of urine osmolality at 10 mg/kg, po relative to control; type: functional; design: scale not given: the % may be the effect or the level left
Rattus norvegicus [25] = assay: Aquaretic effect in hydrated conscious rat assessed as increase in urine volume at 30 mg/kg, po relative to control; type: functional
Vasopressin V1a receptor [26] = molecular target: T2, Vasopressin V1a receptor; assay: Displacement of [3H]Arg-vasopressin from human recombinant vasopressin V1a receptor expressed in HEK293 cells; type: cell-based
Target sequence in this assay (P37288 whole entry): as the sequence (P37288 whole entry) above

T1 sequence (P30518 whole entry): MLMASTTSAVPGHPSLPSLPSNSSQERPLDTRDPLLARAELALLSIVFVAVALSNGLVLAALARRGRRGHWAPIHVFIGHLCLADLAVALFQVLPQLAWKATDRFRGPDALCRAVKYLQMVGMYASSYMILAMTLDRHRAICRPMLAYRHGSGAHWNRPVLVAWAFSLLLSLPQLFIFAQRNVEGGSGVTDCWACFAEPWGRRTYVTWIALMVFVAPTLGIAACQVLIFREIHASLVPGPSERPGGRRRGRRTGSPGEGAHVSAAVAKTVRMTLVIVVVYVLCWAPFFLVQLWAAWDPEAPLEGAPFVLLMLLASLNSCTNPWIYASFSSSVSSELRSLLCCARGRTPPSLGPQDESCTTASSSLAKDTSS

| SMILES | Activity (Vasopressin V2 receptor [1]) | IC50 (Vasopressin V1a receptor [2]) | IC50 (Vasopressin V2 receptor [3]) | IC50 (Vasopressin V2 receptor [9]) | IC50 (Vasopressin V1a receptor [26]) | also measured |
| --- | --- | --- | --- | --- | --- | --- |
| COC(=O)C1=CC2(CC1)CCN(C(=O)c1ccc(NC(=O)c3ccccc3F)cc1)c1ccccc1C2 (stereo not given) | 23% | 0.13 µM | > 10 µM |  |  |  |
| Cc1ccc(F)cc1C(=O)Nc1ccc(C(=O)N2CCC3(C=C(C(=O)O)CC3)Cc3ccccc32)c(Cl)c1 (stereo not given) | 67% |  |  |  |  | Activity (Vasopressin V1a receptor [4]): 10% |
| Cc1ccc(F)cc1C(=O)Nc1ccc(C(=O)N2Cc3cccn3Cc3ccccc32)c(Cl)c1 [LIXIVAPTAN] |  | > 5 µM |  |  |  |  |
| COc1cc(C(=O)N2CC[C@]3(C=C(C4=NCCN4)CC3)Cc3ccccc32)ccc1NC(=O)c1cc(F)ccc1Cl |  |  | 1.05 µM |  |  |  |
| O=C(O)C1=CC2(CC1)CCN(C(=O)c1ccc(NC(=O)c3ccccc3-c3ccccc3)cc1)c1ccccc1C2 (stereo not given) |  |  | 0.36 µM |  |  |  |
| COc1cc(NC(=O)c2cc(F)ccc2C)ccc1C(=O)N1CCC2(C=C(C(=O)O)CC2)Cc2ccccc21 (stereo not given) |  | 11.6 µM | 0.14 µM |  |  | Activity (Vasopressin V1a receptor [4]): 15% |
| COc1cc(C(=O)N2CC[C@]3(C=C(C(=O)O)CC3)Cc3ccccc32)ccc1NC(=O)c1cc(F)ccc1Cl |  |  |  | 0.034 µM |  | Activity (Rattus norvegicus [5]): 83%; Activity (Canis familiaris [6]): 1130%; Activity (Canis familiaris [7]): -78%; ED50 (Rattus norvegicus [8]): 0.644 mg/kg; solubility [10]: > 1 mg/mL; IC50 (Vasopressin V1a receptor [11]): 0.64 µM; IC50 (Vasopressin V2 receptor [12]): 0.03 µM; bioavailability [13]: 68%; bioavailability [14]: 45%; bioavailability [15]: 23%; half-life [16]: 8.7 h; half-life [17]: 5.1 h; half-life [18]: 10.9 h; Activity (Rattus norvegicus [19]): 130%; Activity (Rattus norvegicus [20]): 87%; Activity (Rattus norvegicus [21]): 165%; Activity (Rattus norvegicus [22]): 48%; Activity (Rattus norvegicus [23]): 310%; Activity (Rattus norvegicus [24]): 52%; Activity (Rattus norvegicus [25]): 690% |
| O=C(Nc1ccc(C(=O)N2CCC3(C=C(CO)CC3)Cc3ccccc32)cc1)c1ccccc1-c1ccccc1 (stereo not given) |  | 0.009 µM | 0.19 µM |  |  |  |
| COC(=O)C1=CC2(CC1)CCN(C(=O)c1ccc(NC(=O)c3cc(F)ccc3Cl)cc1)c1ccccc1C2 (stereo not given) |  | 0.19 µM | > 10 µM | > 0.2 µM | 0.04 µM |  |
| O=C(O)C1=CC2(CC1)CCN(C(=O)c1ccc(NC(=O)c3cc(F)ccc3Cl)cc1)c1ccccc1C2 (stereo not given) |  | 0.78 µM | 0.41 µM | 0.076 µM | 0.032 µM |  |
| CN(C)CCNC(=O)C1=C[C@@]2(CC1)CCN(C(=O)c1ccc(NC(=O)c3ccccc3-c3ccccc3)cc1)c1ccccc1C2 |  | 0.045 µM | 0.036 µM | 0.008 µM | 0.002 µM |  |
| Cc1ccc(F)cc1C(=O)Nc1ccc(C(=O)N2CCC3(C=C(CO)CC3)Cc3ccccc32)c(Cl)c1 (stereo not given) | 66% |  |  |  | 0.1 µM |  |
| O=C(O)C1=CC2(CC1)CCN(C(=O)c1ccc(NC(=O)c3ccccc3F)cc1)c1ccccc1C2 (stereo not given) | 15% |  |  |  | 0.1 µM |  |
| CNCC1=CC2(CC1)CCN(C(=O)c1ccc(NC(=O)c3cc(F)ccc3C)cc1Cl)c1ccccc1C2 (stereo not given) | 17% |  |  |  |  | Activity (Vasopressin V1a receptor [4]): 0% |
| CNCC1=CC2(CC1)CCN(C(=O)c1ccc(NC(=O)c3ccccc3-c3ccccc3)cc1)c1ccccc1C2 (stereo not given) |  | 0.63 µM | 1.8 µM | 0.044 µM | 0.018 µM |  |
| COc1cc(C(=O)N2CCC3(C=C(C(=O)O)CC3)Cc3ccccc32)ccc1NC(=O)c1cc(F)ccc1Cl (stereo not given) |  | 0.089 µM | 0.12 µM | 0.092 µM | 0.019 µM |  |
